From paper PMC2748256 (ACS chemical biology, 2009)

Molecular target: DM2 (RNA7)-MBNL-1 complex
Type: biochemical
Details: ligand added to well containing immobilized RNA7, then MBNL-1

Question: How did the IC50 turn out when C#CCCCC(=O)NC[C@@H]1O[C@@H](O[C@H]2[C@H](O)[C@@H](O[C@@H]3O[C@@H](CO)[C@H](O)[C@@H](N)[C@@H]3O)[C@H](N)C[C@@H]2N)[C@@H](O)[C@H](O)[C@H]1O [Compound 1, 6′-N-5-hexynoate kanamycin A] was run?
Answer: 220 µM
